# Results taken from US9181234B2, “Antibacterial compounds” (priority 2010, dated 2015).
# What was measured:
# [1] = system: Enterococcus faecalis (Isolate ID ATCC 29212); assay: Antibacterial activity, MIC, E. faecalis; format: cell-based; conditions: Gram positive strain, broth microdilution or agar dilution; for MIC: Enterococcus faecalis, ATCC29212
# Procedure, shortened: (§1)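 MICs determined by broth microdilution or agar dilution according to CLSI guidelines (M7-A7).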
# [2] = system: Streptococcus pyogenes (Isolate ID ATCC 51339); assay: Antibacterial activity, MIC, S. pyogenes; format: cell-based; conditions: broth microdilution or agar dilution; for MIC: Streptococcus pyogenes, ATCC51339, Gram positive strain
# Procedure, shortened: as §1
# [3] = system: Staphylococcus aureus (Isolate ID ATCC 29213); assay: Antibacterial activity, MIC, S. aureus; format: cell-based; conditions: broth microdilution or agar dilution; for MIC: Staphylococcus aureus, ATCC29213, Gram positive strain
# Procedure, shortened: as §1
# [4] = physchem; conditions: for solubility at 24 h: kinetic from dmso stock
# Procedure, shortened: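 DMSO doubling dilutions were diluted twenty-fold into 100 mM citrate (pH 4), PBS (pH 7.4) or carbonate-bicarbonate (pH 9). After 24 h equilibration at room temperature, absorbance was read at 620 nm. The reported value is the highest concentration without measurable precipitate.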
# [5] = system: Haemophilus influenzae (Isolate ID ATCC 49247); assay: Antibacterial activity, MIC, H. influenzae; format: cell-based; conditions: Gram negative strain, broth microdilution or agar dilution; for MIC: Haemophilus influenzae, ATCC49247
# Procedure, shortened: as §1
# [6] = pH 7.4, aqueous buffer, Max Solubility
# [7] = pH 7.4, aqueous buffer, Solubility (pH 7.4)
# [8] = pH 7.4, aqueous buffer, Solubility Range
# [9] = pH 7.4, aqueous buffer, Solubility Range (maximum solubility)
# [10] = pH 9, aqueous buffer, Max Solubility
# [11] = pH 9, aqueous buffer, Solubility Range (maximum solubility)
Compound,MIC [1],MIC [2],MIC [3],"solubility at 24 h [4, 6]","solubility at 24 h [4, 7]","solubility at 24 h [4, 8]","solubility at 24 h [4, 9]",MIC [5],"solubility at 24 h ([4]; pH 4, aqueous buffer, Max Solubility)","solubility at 24 h ([4]; pH 4, aqueous buffer, Solubility Range (maximum solubility))",Antibacterial Activity (MIC) E. faecalis (ATCC 29212) [1],Antibacterial Activity (MIC) S. pyogenes (ATCC 51339) ([2]; Gram positive strain),Antibacterial Activity (MIC) S. aureus (ATCC 29213) ([3]; Gram positive strain),Max Solubility ([4]; pH 7.4),Solubility (pH 7.4) ([4]; pH 7.4),Antibacterial Activity (MIC) H. influenzae (ATCC 49247) [5],"solubility at 24 h [4, 10]","solubility at 24 h [4, 11]"
CCNC(=O)Nc1nc2cc(-c3cnc(N4CCC(C)(C(=O)O)CC4)nc3)cc(-c3ccncc3)c2s1 [Compound 89],≤ 0.25 µg/mL,0.25 to 1 µg/mL,0.25 to 1 µg/mL,≥ 800 µg/mL,≥ 800 µg/mL,> 800 µg/mL,> 800 µg/mL,1 to 16 µg/mL,–,–,–,–,–,–,–,–,–,–
CCNC(=O)Nc1nc2cc(-c3cnc(N4CCC(C)(C(=O)O)CC4)nc3)cc(-c3nccc(OC)c3C#N)c2s1 [Compound 90],≤ 0.25 µg/mL,≤ 0.25 µg/mL,≤ 0.25 µg/mL,100 µg/mL,100 µg/mL,12.5 to 400 µg/mL,12.5 to 400 µg/mL,0.25 to 1 µg/mL,–,–,–,–,–,–,–,–,–,–
"CCNC(=O)Nc1nc2cc(-c3cnc(N4CCC(C)(C(=O)O)CC4)nc3)cc(C(=O)N(C)CC)c2s1 [Compound 91, 1-[5-[2-(ethylcarbamoylamino)-7-[ethyl(methyl)carbamoyl]-1,3-benzothiazol-5-yl]pyrimidin-2-yl]-4-methyl-piperidine-4-carboxylic acid]",1 to 16 µg/mL,> 16 µg/mL,> 16 µg/mL,≥ 800 µg/mL,≥ 800 µg/mL,> 800 µg/mL,> 800 µg/mL,> 16 µg/mL,–,–,–,–,–,–,–,–,–,–
CCNC(=O)Nc1nc2cc(-c3cnc(N4CCC(C)(C(=O)O)CC4)nc3)cc(-c3cc(C)c(C#N)cn3)c2s1 [Compound 92],≤ 0.25 µg/mL,≤ 0.25 µg/mL,≤ 0.25 µg/mL,–,6.25 µg/mL,< 12.5 µg/mL,–,0.25 to 1 µg/mL,12.5 µg/mL,12.5 to 400 µg/mL,–,–,–,–,–,–,–,–
CCNC(=O)Nc1nc2cc(-c3cnc(N4CCC(CC)(C(=O)O)CC4)nc3)cc(-c3cnccn3)c2s1 [Compound 99],≤ 0.25 µg/mL,≤ 0.25 µg/mL,≤ 0.25 µg/mL,–,≥ 800 µg/mL,> 800 µg/mL,–,1 to 16 µg/mL,–,–,–,–,–,–,–,–,–,–
CCNC(=O)Nc1nc2cc(-c3cnc(N4CCC(CC)(C(=O)O)CC4)nc3)cc(-c3cc(C#N)ccn3)c2s1 [Compound 100],≤ 0.25 µg/mL,≤ 0.25 µg/mL,≤ 0.25 µg/mL,–,12.5 µg/mL,12.5 to 400 µg/mL,–,1 to 16 µg/mL,–,–,–,–,–,–,–,–,–,–
CCNC(=O)Nc1nc2cc(-c3cnc(N4CCC(CC)(C(=O)O)CC4)nc3)cc(-c3nccc(C)n3)c2s1 [Compound 101],≤ 0.25 µg/mL,≤ 0.25 µg/mL,≤ 0.25 µg/mL,–,≥ 800 µg/mL,> 800 µg/mL,–,1 to 16 µg/mL,–,–,–,–,–,–,–,–,–,–
CCNC(=O)Nc1nc2cc(-c3cnc(N4CCC(CC)(C(=O)O)CC4)nc3)cc(-c3cc(OC)ccn3)c2s1 [Compound 102],≤ 0.25 µg/mL,≤ 0.25 µg/mL,≤ 0.25 µg/mL,–,≥ 800 µg/mL,> 800 µg/mL,–,1 to 16 µg/mL,–,–,–,–,–,–,–,–,–,–
CCNC(=O)Nc1nc2cc(-c3cnc(N4CCC(CC)(C(=O)O)CC4)nc3)cc(-c3ncccc3C#N)c2s1 [Compound 104],≤ 0.25 µg/mL,≤ 0.25 µg/mL,≤ 0.25 µg/mL,–,12.5 µg/mL,12.5 to 400 µg/mL,–,1 to 16 µg/mL,–,–,–,–,–,–,–,–,–,–
CCNC(=O)Nc1nc2cc(-c3cnc(N4CCC(CC)(C(=O)O)CC4)nc3)cc(-c3ccc(C#N)cn3)c2s1 [Compound 105],≤ 0.25 µg/mL,≤ 0.25 µg/mL,≤ 0.25 µg/mL,≥ 800 µg/mL,≥ 800 µg/mL,> 800 µg/mL,> 800 µg/mL,1 to 16 µg/mL,–,–,–,–,–,–,–,–,–,–
CCNC(=O)Nc1nc2cc(-c3cnc(N4CCC(CC)(C(=O)O)CC4)nc3)cc(-c3ncnc4[nH]ccc34)c2s1 [Compound 106],≤ 0.25 µg/mL,≤ 0.25 µg/mL,0.25 to 1 µg/mL,≥ 800 µg/mL,≥ 800 µg/mL,> 800 µg/mL,> 800 µg/mL,1 to 16 µg/mL,–,–,–,–,–,–,–,–,–,–
CCNC(=O)Nc1nc2cc(-c3cnc(N4CCC(CC)(C(=O)OCC)CC4)nc3)cc(Br)c2s1 [Compound 107],–,–,–,–,–,–,–,–,–,–,A (“A” activity ≦0.25 μg/mL),B (“B” activity >0.25 μg/mL-1.0 μg/mL),A (“A” activity ≦0.25 μg/mL),≧800 μg/mL,≧800 μg/mL,D (“D” activity >16 μg/mL),–,–
CCNC(=O)Nc1nc2cc(-c3cnc(N4CCC(CC)(C(=O)O)CC4)cn3)cc(-c3ccccn3)c2s1 [Compound 108],≤ 0.25 µg/mL,≤ 0.25 µg/mL,≤ 0.25 µg/mL,≥ 800 µg/mL,≥ 800 µg/mL,> 800 µg/mL,> 800 µg/mL,1 to 16 µg/mL,–,–,–,–,–,–,–,–,–,–
CCNC(=O)Nc1nc2cc(-c3cnc(N4CCC(CC)(C(=O)O)CC4)nc3)cc(-c3nccc(OC)n3)c2s1 [Compound 109],≤ 0.25 µg/mL,≤ 0.25 µg/mL,≤ 0.25 µg/mL,≥ 800 µg/mL,≥ 800 µg/mL,> 800 µg/mL,> 800 µg/mL,> 16 µg/mL,–,–,–,–,–,–,–,–,–,–
CCNC(=O)Nc1nc2cc(-c3cnc(N4CCC(CC)(C(=O)O)CC4)nc3)cc(-c3cc(OC)ncn3)c2s1 [Compound 110],≤ 0.25 µg/mL,≤ 0.25 µg/mL,≤ 0.25 µg/mL,≥ 800 µg/mL,≥ 800 µg/mL,> 800 µg/mL,> 800 µg/mL,0.25 to 1 µg/mL,–,–,–,–,–,–,–,–,–,–
CCNC(=O)Nc1nc2cc(-c3cnc(N4CCC(CC)(C(=O)O)CC4)cn3)cc(-c3nccc(C)n3)c2s1 [Compound 112],≤ 0.25 µg/mL,≤ 0.25 µg/mL,0.25 to 1 µg/mL,–,25 µg/mL,12.5 to 400 µg/mL,–,1 to 16 µg/mL,–,–,–,–,–,–,–,–,100 µg/mL,12.5 to 400 µg/mL
CCNC(=O)Nc1nc2cc(-c3cnc(N4CCC(CC)(C(=O)O)CC4)nc3)ccc2s1 [Compound 113],0.25 to 1 µg/mL,1 to 16 µg/mL,1 to 16 µg/mL,100 µg/mL,100 µg/mL,12.5 to 400 µg/mL,12.5 to 400 µg/mL,> 16 µg/mL,–,–,–,–,–,–,–,–,–,–
"CCNC(=O)Nc1nc2cc(-c3cnc(N4CCC(CC)(C(=O)O)CC4)nc3)cc(N3CCOCC3)c2s1 [Compound 114, 4-ethyl-1-[5-[2-(ethylcarbamoylamino)-7-morpholino-1,3-benzothiazol-5-yl]pyrimidin-2-yl]piperidine-4-carboxylic acid]",≤ 0.25 µg/mL,1 to 16 µg/mL,1 to 16 µg/mL,400 µg/mL,400 µg/mL,400 to 800 µg/mL,400 to 800 µg/mL,> 16 µg/mL,–,–,–,–,–,–,–,–,–,–
CCNC(=O)Nc1nc2cc(-c3cnc(N4CCC(CC)(C(=O)O)CC4)nc3)cc(-c3ccc(F)cc3)c2s1 [Compound 115],≤ 0.25 µg/mL,1 to 16 µg/mL,≤ 0.25 µg/mL,–,400 µg/mL,400 to 800 µg/mL,–,> 16 µg/mL,–,–,–,–,–,–,–,–,≥ 800 µg/mL,> 800 µg/mL
CCCC1(C(=O)O)CCN(c2ncc(-c3cc(-c4ccccn4)c4sc(NC(=O)NCC)nc4c3)cn2)CC1 [Compound 117],≤ 0.25 µg/mL,≤ 0.25 µg/mL,≤ 0.25 µg/mL,–,400 µg/mL,400 to 800 µg/mL,–,1 to 16 µg/mL,–,–,–,–,–,–,–,–,–,–
